Laboratory results from patent US20210355435A1, “CULTURE MEDIUM COMPRISING KETO ACIDS” (Evonik Operations GmbH, priority 2018, published 2021).

Columns and labels:
[1] = test system: CHO cells (subclone DG44); test: Antibody production in CHO cells with keto leucine instead of L-leucine; assay type: cell-based, Chinese hamster; details: keto leucine as calcium salt, reference normalized to 1.0
Description: (§1) Antibody producing chinese hamster ovary (CHO) cells (subclone DG44) were cultivated in shake flasks (125 ml or 250 ml with a culture volume of 50 ml or 100 ml respectively) in TC42/CHOMACS CD culture medium (TeutoCell AG) containing 8 mM L-glutamine. The culture medium was prepared by mixing two solutions. The first contained the conventional medium formulation (containing L-leucine and calcium chloride). In the second, the amino acid L-leucine in the culture medium was substituted by keto leucine (178 mg/l) as calcium salt in equimolar quantities. These solutions were mixed in different ratios. The growth of cells cultivated in the different mixtures was compared to cells cultivated in the conventional culture medium.
The concentration of antibody produced by the cells cultivated in the reference culture medium containing L-leucine (Reference) were normalized to 1.0.

[2] = test system: CHO cells (subclone DG44); test: Growth of CHO cells in medium with keto leucine instead of L-leucine; assay type: cell-based, Chinese hamster; details: keto leucine as calcium salt instead of L-leucine, up to 178 mg/l, third passage
Description: as §1
A corresponds to cells cultivated in a culture medium containing 178 mg/L of keto leucine, B to a mixture containing 30% (v/v) of the keto leucine solution, C to a mixture containing 5% (v/v) of the keto leucine solution and a reference containing only L-leucine.

Question: Which results are given for `CC(C)CC(=O)C(=O)O` [keto leucine, alpha-keto isocaproate]?
Answer: antibody production with keto leucine instead of L-leucine [1]: L-leucine can be substituted; viable cell density versus reference medium with L-leucine [2]: slightly reduced
